Assay results: patent US12281122B1, “PI3K inhibitors” (Cogent Biosciences, Inc., priority 2023, dated 2025)

Columns and labels:
[1] = test system: SKBR3 (PI3Kα-Wild Type) cell line; experiment: HTRF phospho-AKT(S473) cell assay in SKBR3 cells; type: cell-based, human
Outline: (§1)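 Cells plated overnight (T47D in RPMI/10% FBS/0.2 units/mL insulin; SKBR3 in McCoy's 5A/10% FBS), then given 12-point 1:3 compound series (top 5 μM T47D, 10 μM SKBR3; ≤0.5% DMSO) for 2 h at 37° C. SKBR3 stimulated with 70 ng/ml PDGF-BB for final 15 min. Lysate pAKT(S473) by HTRF; IC50 calculated.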

[2] = test system: T47D (PI3Kα-H1047R) cell line; experiment: HTRF phospho-AKT(S473) cell assay in T47D cells; type: cell-based, human
Outline: as §1

[3] = Homo sapiens, SK-BR-3; SKBR3 (PI3Kα-Wild Type) cells, HTRF phospho-AKT(S473), 2 hours compound incubation, PDGF-BB stimulated
[4] = Homo sapiens; T47D (PI3Kα-H1047R) cells, HTRF phospho-AKT(S473), 2 hours compound incubation
[5] = Homo sapiens, SK-BR-3; HTRF phospho-AKT(S473), SKBR3 (PI3Kα-Wild Type) cells, 2 hours compound incubation, PDGF-BB stimulated
[6] = Homo sapiens; HTRF phospho-AKT(S473), T47D (PI3Kα-H1047R) cells, 2 hours compound incubation

| Structure (SMILES) | IC50 [1, 3] [µM] | IC50 [2, 4] [µM] | IC50 [1, 5] [µM] | IC50 [2, 6] [µM] |
| --- | --- | --- | --- | --- |
| COc1ccnn1C1CCN(c2nc3c([C@@H](C)Nc4ccc(Cl)nc4C(=O)NS(C)(=O)=O)cc(C)cc3c(=O)n2C)CC1 [Compound 318, (R)-6-chloro-3-((1-(2-(4-(5-methoxy-1H-pyrazol-1-yl)piperidin-1-yl)-3,6-dimethyl-4-oxo-3,4-dihydroquinazolin-8-yl)ethyl)amino)-N-(methylsulfonyl) picolinamide] | 1 to 5 | < 0.25 | – | – |
| Cc1cc([C@@H](C)Nc2ccc(Cl)nc2C(=O)NS(C)(=O)=O)c2nc(N3[C@@H]4CC[C@H]3C[C@H](c3ccn(C)n3)C4)n(C)c(=O)c2c1 [Compound 342, 6-chloro-3-(((R)-1-(3,6-dimethyl-2-((1R,3S,5S)-3-(1-methyl-1H-pyrazol-3-yl)-8-azabicyclo[3.2.1]octan-8-yl)-4-oxo-3,4-dihydroquinazolin-8-yl)ethyl)amino)-N-(methylsulfonyl) picolinamide] | 1 to 5 | < 0.25 | – | – |
| Cc1cc([C@@H](C)Nc2ccc(Cl)nc2C(=O)NS(C)(=O)=O)c2nc(N3Cc4cn(C5COC5)nc4C3)n(C)c(=O)c2c1 [Compound 290, (R)-6-chloro-3-((1-(3,6-dimethyl-2-(2-(oxetan-3-yl)-2,6-dihydropyrrolo[3,4-c]pyrazol-5(4H)-yl)-4-oxo-3,4-dihydroquinazolin-8-yl)ethyl)amino)-N-(methylsulfonyl) picolinamide] | 1 to 5 | < 0.25 | – | – |
| Cc1cc([C@@H](C)Nc2ccc(Cl)nc2C(=O)NS(C)(=O)=O)c2nc(N3CCC(c4nn(C)cc4N(C)C)CC3)n(C)c(=O)c2c1 [Compound 308, (R)-6-chloro-3-((1-(2-(4-(4-(dimethylamino)-1-methyl-1H-pyrazol-3-yl)piperidin-1-yl)-3,6-dimethyl-4-oxo-3,4-dihydroquinazolin-8-yl)ethyl)amino)-N-(methylsulfonyl) picolinamide] | ≥ 5 | < 0.25 | – | – |
| CCn1c(N2CCC(c3nn(C)cc3F)CC2)nc2c([C@@H](C)Nc3ccc(Cl)nc3C(=O)NS(C)(=O)=O)cc(C)cc2c1=O [Compound 433, (R)-6-chloro-3-((1-(3-ethyl-2-(4-(4-fluoro-1-methyl-1H-pyrazol-3-yl)piperidin-1-yl)-6-methyl-4-oxo-3,4-dihydroquinazolin-8-yl)ethyl)amino)-N-(methylsulfonyl) picolinamide] | ≥ 5 | < 0.25 | – | – |
| Cc1cc([C@@H](C)Nc2ccc(Cl)nc2C(=O)NS(C)(=O)=O)c2nc(N3C[C@@H]4[C@H](C3)[C@H]4c3ccn(C)n3)n(C3CC3)c(=O)c2c1 [Compound 419, 6-chloro-3-(((R)-1-(3-cyclopropyl-6-methyl-2-((1R,5S,6R)-6-(1-methyl-1H-pyrazol-3-yl)-3-azabicyclo[3.1.0]hexan-3-yl)-4-oxo-3,4-dihydroquinazolin-8-yl)ethyl)amino)-N-(methylsulfonyl) picolinamide] | 1 to 5 | 0.25 to 0.5 | – | – |
| Cc1cc([C@@H](C)Nc2ccc(Cl)nc2C(=O)NS(C)(=O)=O)c2nc(N3C[C@@H]4[C@H](C3)[C@H]4c3ccn(C(F)F)n3)n(C)c(=O)c2c1 [Compound 470, 6-chloro-3-(((R)-1-(2-((1R,5S,6R)-6-(1-(difluoromethyl)-1H-pyrazol-3-yl)-3-azabicyclo[3.1.0]hexan-3-yl)-3,6-dimethyl-4-oxo-3,4-dihydroquinazolin-8-yl)ethyl)amino)-N-(methylsulfonyl) picolinamide] | – | – | 1 to 5 | < 0.25 |
| Cc1cc([C@@H](C)Nc2ccc(Cl)nc2C(=O)NS(C)(=O)=O)c2nc(-c3ccc(OC[C@@H]4CCN(C)CC4(F)F)nc3)n(C)c(=O)c2c1 [Compound 390, 6-chloro-3-(((R)-1-(2-(6-(((S)-3,3-difluoro-1-methylpiperidin-4-yl)methoxy)pyridin-3-yl)-3,6-dimethyl-4-oxo-3,4-dihydroquinazolin-8-yl)ethyl)amino)-N-(methylsulfonyl) picolinamide] | ≥ 5 | < 0.25 | – | – |
| Cc1cc([C@@H](C)Nc2ccc(Cl)nc2C(=O)NS(C)(=O)=O)c2nc(N3CC[C@H](Oc4cc[nH]n4)C3)n(C)c(=O)c2c1 [Compound 362, 3-(((R)-1-(2-((S)-3-((1H-pyrazol-3-yl)oxy)pyrrolidin-1-yl)-3,6-dimethyl-4-oxo-3,4-dihydroquinazolin-8-yl)ethyl)amino)-6-chloro-N-(methylsulfonyl) picolinamide] | 1 to 5 | < 0.25 | – | – |
| Cc1cc([C@@H](C)Nc2ccc(Cl)nc2C(=O)NS(C)(=O)=O)c2nc(N3Cc4ccc(C)nc4C3)n(C)c(=O)c2c1 [Compound 514, (R)-6-chloro-3-((1-(3,6-dimethyl-2-(2-methyl-5,7-dihydro-6H-pyrrolo[3,4-b]pyridin-6-yl)-4-oxo-3,4-dihydroquinazolin-8-yl)ethyl)amino)-N-(methylsulfonyl) picolinamide] | – | – | 1 to 5 | < 0.25 |
| Cc1cc([C@@H](C)Nc2ccc(Cl)nc2C(=O)NS(C)(=O)=O)c2nc(N3C[C@@H]4[C@H](C3)[C@H]4c3ccnc(C)c3F)n(C)c(=O)c2c1 [Compound 548, 6-chloro-3-(((R)-1-(2-((1R,5S,6S)-6-(3-fluoro-2-methylpyridin-4-yl)-3-azabicyclo[3.1.0]hexan-3-yl)-3,6-dimethyl-4-oxo-3,4-dihydroquinazolin-8-yl)ethyl)amino)-N-(methylsulfonyl) picolinamide] | – | – | 1 to 5 | 0.25 to 0.5 |
| Cc1cc([C@@H](C)Nc2ccc(Cl)nc2C(=O)NS(C)(=O)=O)c2nc(N3CCC(c4nnc(C)s4)CC3)n(C)c(=O)c2c1 [Compound 558, (R)-6-chloro-3-((1-(3,6-dimethyl-2-(4-(5-methyl-1,3,4-thiadiazol-2-yl)piperidin-1-yl)-4-oxo-3,4-dihydroquinazolin-8-yl)ethyl)amino)-N-(methylsulfonyl) picolinamide] | – | – | 1 to 5 | < 0.25 |

The next lines start with the values.

| IC50 [1, 3] [µM] | IC50 [2, 4] [µM] | IC50 [1, 5] [µM] | IC50 [2, 6] [µM] | Structure (SMILES) |
| --- | --- | --- | --- | --- |
| – | – | ≥ 5 | < 0.25 | CCn1c(N2CCC(c3nc(C)n(C)n3)CC2)nc2c([C@@H](C)Nc3ccc(Cl)nc3C(=O)NS(C)(=O)=O)cc(C)cc2c1=O [Compound 616, (R)-6-chloro-3-((1-(2-(4-(1,5-dimethyl-1H-1,2,4-triazol-3-yl)piperidin-1-yl)-3-ethyl-6-methyl-4-oxo-3,4-dihydroquinazolin-8-yl)ethyl)amino)-N-(methylsulfonyl) picolinamide] |
| – | – | 1 to 5 | < 0.25 | C[C@@H](Nc1ccc(Cl)nc1C(=O)NS(C)(=O)=O)c1cc(F)cc2c(=O)n(C)c(N3CC[C@@H](Oc4cnn(C)c4)C3)nc12 [Compound 560, 6-chloro-3-(((R)-1-(6-fluoro-3-methyl-2-((R)-3-((1-methyl-1H-pyrazol-4-yl)oxy)pyrrolidin-1-yl)-4-oxo-3,4-dihydroquinazolin-8-yl)ethyl)amino)-N-(methylsulfonyl) picolinamide] |
| – | – | ≥ 5 | 0.25 to 0.5 | Cc1cc([C@@H](C)Nc2ccc(Cl)nc2C(=O)NS(C)(=O)=O)c2nc(N3CCN(c4ncccc4F)CC3)n(C)c(=O)c2c1 [Compound 662, (R)-6-chloro-3-((1-(2-(4-(3-fluoropyridin-2-yl)piperazin-1-yl)-3,6-dimethyl-4-oxo-3,4-dihydroquinazolin-8-yl)ethyl)amino)-N-(methylsulfonyl) picolinamide] |
| – | – | 1 to 5 | 0.25 to 0.5 | Cc1cc([C@@H](C)Nc2ccc(Cl)nc2C(=O)NS(C)(=O)=O)c2nc(-c3ccc4c(c3)C(=O)N(C)C4)n(C)c(=O)c2c1 [Compound 776, (R)-6-chloro-3-((1-(3,6-dimethyl-2-(2-methyl-3-oxoisoindolin-5-yl)-4-oxo-3,4-dihydroquinazolin-8-yl)ethyl)amino)-N-(methylsulfonyl) picolinamide] |
| – | – | 1 to 5 | < 0.25 | Cc1cc([C@@H](C)Nc2ccc(Cl)nc2C(=O)NS(C)(=O)=O)c2nc(N3C[C@@H]4[C@H](C3)[C@H]4c3cnc(C)nc3C)n(C)c(=O)c2c1 [Compound 578, 6-chloro-3-(((R)-1-(2-((1R,5S,6S)-6-(2,4-dimethylpyrimidin-5-yl)-3-azabicyclo[3.1.0]hexan-3-yl)-3,6-dimethyl-4-oxo-3,4-dihydroquinazolin-8-yl)ethyl)amino)-N-(methylsulfonyl) picolinamide] |
| – | – | ≥ 5 | 0.5 to 1 | Cc1cc([C@@H](C)Nc2ccc(Cl)nc2C(=O)NS(C)(=O)=O)c2nc(N3C[C@@H]4C[C@H]3CN4c3cnc(C)nc3)n(C)c(=O)c2c1 [Compound 576, 6-chloro-3-(((R)-1-(3,6-dimethyl-2-((1S,4S)-5-(2-methylpyrimidin-5-yl)-2,5-diazabicyclo[2.2.1]heptan-2-yl)-4-oxo-3,4-dihydroquinazolin-8-yl)ethyl)amino)-N-(methylsulfonyl) picolinamide] |
| – | – | 1 to 5 | 0.25 to 0.5 | Cc1cc([C@@H](C)Nc2ccc(Cl)nc2C(=O)NS(C)(=O)=O)c2nc(N3CCC[C@@H](c4cnccn4)C3)n(C)c(=O)c2c1 (relative stereo) [Compound 618, 6-chloro-3-(((R)-1-(3,6-dimethyl-4-oxo-2-((R*)-3-(pyrazin-2-yl)piperidin-1-yl)-3,4-dihydroquinazolin-8-yl)ethyl)amino)-N-(methylsulfonyl) picolinamide] |
